# In ChEMBL document CHEMBL4699482, “Synthesis and SAR of a series of mGlu NAMs based on an ethyl-8-methoxy-4-(4-phenylpiperazin-1-yl)quinoline carboxylate core” (Bioorg Med Chem Lett, 2020):
# Experiments:
# [1] = target: Metabotropic glutamate receptor 7 (Rattus norvegicus, UniProt P35400); assay: (§1) Negative allosteric modulation of rat mGlu7 receptor expressed in HEK cells co-expressing Galpha15 assessed as reduction in calcium mobilization incubated for 142 secs prior to glutamate addition and after 120 secs treated with L-AP4 and measured after 40 secs by Fluo-4 AM dye based fluorescence assay; type: functional, cell-based
# [2] = target: Metabotropic glutamate receptor 7 (Rattus norvegicus) (UniProt P35400); assay: as §1, with “assessed as minimum L-AP4 response by measuring reduction in” for “assessed as reduction in”, “fluorescence assay relative to L-AP4” for “fluorescence assay”; type: functional, cell-based; parameters: scale not given: the % may be the effect or the level left; details: time 302.0 sec
# [3] = Fraction unbound in mouse brain homogenate at 5 uM incubated for 6 hrs by equilibrium dialysis method; type: ADME, tissue-based
# [4] = Fraction unbound in rat plasma at 5 uM incubated for 4 hrs by equilibrium dialysis method; type: ADME, cell-free
# [5] = Fraction unbound in rat brain homogenate at 5 uM incubated for 6 hrs by equilibrium dialysis method; type: ADME, tissue-based
# [6] = Fraction unbound in mouse plasma at 5 uM incubated for 4 hrs by equilibrium dialysis method; type: ADME, cell-free
# [7] = Fraction unbound in human plasma at 5 uM incubated for 4 hrs by equilibrium dialysis method; type: ADME, cell-free
# [8] = target: Metabotropic glutamate receptor 8 (Homo sapiens, UniProt O00222); assay: Negative allosteric modulation of mGlu8 receptor (unknown origin)
# [9] = target: Metabotropic glutamate receptor 4 (Homo sapiens, UniProt Q14833); assay: Negative allosteric modulation of mGlu4 receptor (unknown origin)
# [10] = filed as negative allosteric modulator
# Sequence of Metabotropic glutamate receptor 7 (Rattus norvegicus) (P35400 whole entry): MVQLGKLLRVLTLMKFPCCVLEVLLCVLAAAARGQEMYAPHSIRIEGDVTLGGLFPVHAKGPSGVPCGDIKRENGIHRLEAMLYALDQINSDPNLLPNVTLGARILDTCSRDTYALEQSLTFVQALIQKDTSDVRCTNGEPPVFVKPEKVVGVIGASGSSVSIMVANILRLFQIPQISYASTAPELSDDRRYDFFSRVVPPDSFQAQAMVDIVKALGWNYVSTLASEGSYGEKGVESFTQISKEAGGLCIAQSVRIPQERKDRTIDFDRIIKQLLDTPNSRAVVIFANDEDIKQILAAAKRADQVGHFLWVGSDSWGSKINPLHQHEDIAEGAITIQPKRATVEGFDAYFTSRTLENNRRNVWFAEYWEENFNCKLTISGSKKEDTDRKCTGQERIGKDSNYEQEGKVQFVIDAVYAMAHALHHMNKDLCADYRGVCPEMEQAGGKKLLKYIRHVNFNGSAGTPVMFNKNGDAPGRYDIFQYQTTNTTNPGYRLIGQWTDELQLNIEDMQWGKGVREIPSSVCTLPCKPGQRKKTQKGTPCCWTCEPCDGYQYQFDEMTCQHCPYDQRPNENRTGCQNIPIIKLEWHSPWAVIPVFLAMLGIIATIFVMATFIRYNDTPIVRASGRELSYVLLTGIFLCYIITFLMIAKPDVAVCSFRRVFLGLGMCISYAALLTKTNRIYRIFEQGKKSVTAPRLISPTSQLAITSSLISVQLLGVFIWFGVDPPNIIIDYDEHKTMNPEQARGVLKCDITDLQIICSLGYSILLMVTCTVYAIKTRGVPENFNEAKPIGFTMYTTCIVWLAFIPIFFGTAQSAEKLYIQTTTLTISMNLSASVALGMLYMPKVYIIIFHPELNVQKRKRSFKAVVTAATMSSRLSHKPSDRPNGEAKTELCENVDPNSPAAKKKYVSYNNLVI
# Sequence of Metabotropic glutamate receptor 7 (P35400 whole entry): as above
# Sequence of Metabotropic glutamate receptor 4 (Q14833 whole entry): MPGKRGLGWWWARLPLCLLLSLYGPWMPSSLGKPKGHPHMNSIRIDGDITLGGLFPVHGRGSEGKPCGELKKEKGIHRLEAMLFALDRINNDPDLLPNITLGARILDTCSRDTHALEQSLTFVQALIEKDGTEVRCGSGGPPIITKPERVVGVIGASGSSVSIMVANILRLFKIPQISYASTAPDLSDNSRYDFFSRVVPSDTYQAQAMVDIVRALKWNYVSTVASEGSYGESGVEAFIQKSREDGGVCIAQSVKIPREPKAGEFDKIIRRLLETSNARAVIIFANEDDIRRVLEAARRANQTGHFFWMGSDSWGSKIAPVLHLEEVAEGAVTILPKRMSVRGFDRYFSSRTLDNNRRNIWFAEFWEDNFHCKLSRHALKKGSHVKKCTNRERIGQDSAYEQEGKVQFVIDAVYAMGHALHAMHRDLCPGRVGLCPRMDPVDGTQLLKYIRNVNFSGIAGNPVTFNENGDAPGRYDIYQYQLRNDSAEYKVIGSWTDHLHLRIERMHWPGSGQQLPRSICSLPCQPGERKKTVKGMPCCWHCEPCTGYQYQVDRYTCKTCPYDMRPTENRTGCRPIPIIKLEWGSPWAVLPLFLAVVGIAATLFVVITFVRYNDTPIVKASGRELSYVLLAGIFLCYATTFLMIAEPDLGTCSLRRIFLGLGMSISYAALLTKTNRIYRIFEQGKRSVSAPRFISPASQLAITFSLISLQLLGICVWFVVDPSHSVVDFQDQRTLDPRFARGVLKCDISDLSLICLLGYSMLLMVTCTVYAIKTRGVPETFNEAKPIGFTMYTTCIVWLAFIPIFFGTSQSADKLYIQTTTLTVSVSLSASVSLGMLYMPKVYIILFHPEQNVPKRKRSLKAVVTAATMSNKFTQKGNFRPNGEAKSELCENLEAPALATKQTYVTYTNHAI
# Sequence of Metabotropic glutamate receptor 8 (O00222 whole entry): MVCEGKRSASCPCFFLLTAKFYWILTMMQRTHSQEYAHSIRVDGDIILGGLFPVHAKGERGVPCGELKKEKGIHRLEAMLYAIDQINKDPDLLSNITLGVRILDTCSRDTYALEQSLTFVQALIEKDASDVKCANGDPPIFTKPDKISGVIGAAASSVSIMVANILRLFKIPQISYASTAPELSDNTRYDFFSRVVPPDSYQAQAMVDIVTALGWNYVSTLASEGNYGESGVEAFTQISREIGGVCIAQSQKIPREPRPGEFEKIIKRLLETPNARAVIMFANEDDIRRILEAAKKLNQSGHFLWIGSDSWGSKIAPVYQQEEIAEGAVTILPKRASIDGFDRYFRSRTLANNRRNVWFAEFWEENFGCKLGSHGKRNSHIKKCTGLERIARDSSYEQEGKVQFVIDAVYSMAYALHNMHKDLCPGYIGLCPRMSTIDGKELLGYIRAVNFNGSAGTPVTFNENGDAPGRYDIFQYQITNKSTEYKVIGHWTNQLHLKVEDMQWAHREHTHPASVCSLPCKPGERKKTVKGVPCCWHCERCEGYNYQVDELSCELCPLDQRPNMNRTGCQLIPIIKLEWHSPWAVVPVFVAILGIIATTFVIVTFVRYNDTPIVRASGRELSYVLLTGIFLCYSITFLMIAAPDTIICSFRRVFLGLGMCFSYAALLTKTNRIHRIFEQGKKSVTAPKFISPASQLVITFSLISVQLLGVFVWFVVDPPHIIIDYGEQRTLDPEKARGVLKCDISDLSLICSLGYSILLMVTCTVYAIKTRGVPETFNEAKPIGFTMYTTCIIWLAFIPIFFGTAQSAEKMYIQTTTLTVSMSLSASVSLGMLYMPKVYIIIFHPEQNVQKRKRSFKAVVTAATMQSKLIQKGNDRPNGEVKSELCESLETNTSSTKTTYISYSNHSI
SMILES,IC50 [1] [nM],"Activity [2, 10] [%]",further results
CCOC(=O)c1cnc2c(OC)cccc2c1N1CC2(CN(c3ccccc3OC)C2)C1,> 30000,,
CCOC(=O)c1cnc2c(OC)cccc2c1N1CCN(c2ccccc2C#N)CC1,4200,14,
CCOC(=O)c1cnc2ccccc2c1N1CCN(c2ccccc2OC)CC1,> 30000,,
CCOC(=O)c1cnc2c(OC)cccc2c1-c1cnc(-c2ccccc2OC)cn1,540,5.1,
CCOC(=O)c1cnc2c(OC)cccc2c1-c1cnc(-c2ccccc2OC)c(OC)c1,350,3.6,Fu [3]: 0.04; Fu [4]: 0.01; Fu [5]: 0.04; Fu [6]: 0.01
CCOC(=O)c1cnc2c(OC)cc(OC)cc2c1-c1ccc(-c2ccccc2OCC)nc1,810,5,
CCOC(=O)c1cnc2c(OC)cccc2c1-c1ccc(-c2ccccc2OC)cc1,2900,4.2,Fu [7]: < 0.001; Fu [4]: < 0.001
CCOC(=O)c1cnc2c(OC)cccc2c1-c1cc(F)c(-c2ccccc2OC)nc1OC,2100,24,
CCOC(=O)c1cnc2c(OC)cccc2c1C1=CCN(c2ccccc2OC)CC1,3600,9.6,
CCOC(=O)c1ccc2c(OC)cccc2c1N1CCN(c2ccccc2OC)CC1,> 30000,,
CCOC(=O)c1cnc2c(OC)cccc2c1-c1ccc(-c2ccccc2SC)nc1,410,5.6,
CCOC(=O)c1cnc2c(OC)cccc2c1N1CCN(c2cccs2)CC1,> 30000,,
CCOC(=O)c1cnc2c(OC)cccc2c1-c1ccc(-c2ccccc2OC(C)C)nc1,1500,5.8,
CCOC(=O)c1cnc2c(OC)cccc2c1-c1ccc(-c2ccccc2OC)cn1,2800,6.8,
CCOC(=O)c1cnc2c(OC)cccc2c1N1CCN(c2cc(F)ccc2OC)CC1,2100,15,
CCOC(=O)c1cnc2c(OC)cccc2c1N1CCN(c2ccccc2OC(F)(F)F)CC1,> 30000,,
CCOC(=O)c1cnc2c(OC)cccc2c1N1CCN(c2ccc(OC)cc2OC)CC1,1900,9,
CCOC(=O)c1cnc2c(OC)cccc2c1N1CCN(c2ccccc2Cl)CC1,> 30000,,
CCOC(=O)c1cnc2c(OC)cccc2c1N1CCN(c2ccccc2OC)CC1,647,5.6,Fu [7]: 0.018; Fu [4]: 0.016; IC50 [8]: > 30000 nM; IC50 [9]: > 30000 nM
CCOC(=O)c1cnc2c(OC)cccc2c1N1CCN(c2ccccc2C)CC1,> 10000,41,
CCOC(=O)c1cnc2c(OC)cccc2c1-c1cnc(-c2ccccc2OC)nc1,2400,12,
CCOC(=O)c1cnc2c(OC)cccc2c1C1C2CC1CN(c1ccccc1OC)C2 (stereo unspecified),> 30000,,
CCOC(=O)c1cnc2c(OC)cccc2c1N1CCN(c2ccccc2SC)CC1,510,4.7,

SMILES,IC50 [1] [nM],"Activity [2, 10] [%]",further results
CCOC(=O)c1cnc2c(OC)cccc2c1C1CC2CC(C1)N2c1ccccc1OC (stereo unspecified),> 10000,41,
CCOC(=O)c1cnc2c(OC)cccc2c1N1CCN(c2ccccc2OCC)CC1,5100,8.7,
CCOC(=O)c1cnc2c(OC)cc(OC)cc2c1-c1ccc(-c2ccccc2OC)nc1,880,3.5,
CCOC(=O)c1cnc2ccsc2c1N1CCN(c2ccccc2OC)CC1,4500,24,
CCOC(=O)c1cnc2c(OC)cccc2c1N1CCN(c2ccccc2F)CC1,6100,12,
CCOC(=O)c1cnc2c(OC)cc(OC)cc2c1N1CCN(c2ccccc2OC)CC1,670,3.9,
CCOC(=O)c1cnccc1N1CCN(c2ccccc2OC)CC1,4200,13,
CCOC(=O)c1cnc2c(OC)cccc2c1N1CC2CN(c3ccccc3OC)CC2C1 (stereo unspecified),> 10000,,Activity [2]: 57%
CCOC(=O)c1cnc2c(OC)cccc2c1C1CCN(c2ccccc2OC)CC1,> 10000,41,
CCOC(=O)c1cnc2c(OC)cccc2c1N1CCN(c2ccccc2OC(C)C)CC1,2300,6.5,
CCOC(=O)c1cnc2sccc2c1N1CCN(c2ccccc2OC)CC1,4500,26,
CCOC(=O)c1cnc2c(OC)cccc2c1N1CCN(c2ccccc2OC)CC1C (racemic),1500,6.1,
CCOC(=O)c1cnc2c(OC)cccc2c1N1CCN(c2ccccc2OC)C(C)C1 (racemic),1300,8.6,
CCOC(=O)c1cnc2c(OC)cccc2c1-c1ccc(-c2ccccc2OCC)nc1,370,6.3,
CCOC(=O)c1cnc2c(OC)cccc2c1N1CCN(c2c(OC)cccc2OC)CC1,800,11,
CCOC(=O)c1cnc2c(OC)cccc2c1N(C)CCN(C)c1ccccc1OC,4400,9.6,
CCOC(=O)c1cnc2c(OC)cccc2c1-c1ccc(-c2ccccc2OC)nc1,600,6.5,
CCOC(=O)c1cnc2c(OC)cccc2c1N1CCN(c2cccnc2OC)CC1,1500,10,
CCOC(=O)c1cnc2c(OC)cccc2c1-c1ccn(Cc2ccccc2OC)c1,1200,6.5,
CCOC(=O)c1cnc2c(OC)cccc2c1N1CCN(c2nccnc2OC)CC1,3000,11,
CCOC(=O)c1cnc2c(OC)cccc2c1N1CCN(c2ccnn2C)CC1,> 30000,,
CCOC(=O)c1cnc2c(OC)cccc2c1N1CCN(c2cncs2)CC1,> 30000,,
